The source of these data is US11992535B2, “Compounds and probes for imaging huntingtin protein” (CHDI Foundation, Inc., priority 2019, dated 2024).

The test deals with aggregated MBP-HTT(1-89)Q46-His(6×) (Exonl-Q46) protein (Q46 protein aggregates) (Homo sapiens (Human), UniProt P42858, INS38QQQQQQQQQQQQQQQQQQQQQQQQQ). Briefly: Q46 Radioligand Binding Assay. The note with it: read-out: Q46_RBA EC50_. How it is done: Q46 Radioligand Binding Assay
For radioligand binding assays (RBA) MBP-HTT(1-89)Q46-His(6×) (“Exonl-Q46”) protein was generated based on a previous publication (Scherzinger et al. Cell, Vol. 90, 549-558, Aug. 8, 1997). For experiments 30 μM MBP-Exonl-Q46 was incubated with 150 μg/mL thrombin in assay buffer (150 mM NaCl, 50 mM Tris pH 8.0) and 2 mM CaCl2 for 16 hours at 37° C. Aggregated Exonl-Q46 was pelleted by centrifugation for 5 minutes at 13,000 rpm in a bench top centrifuge and re-dissolved in the same volume of assay buffer. Test compounds were prepared by titration in DMSO at 11 concentrations from 63 μM to 2 nM. For the RBA, Q46 protein aggregates and test compounds were pre-incubated in assay buffer for 20 minutes at room temperature, in 100 μL/well in a 96-well plate (pp, round bottom). Then, ligand was added in 50 μL/well and incubated for 60 minutes at 37° C. Final assay concentrations were 1 μM to 30 μM test compound, 1 μM Exonl-Q46 protein (equivalent monomer concentration) and 0.3 nM ligand [^3H3-methyl]-5-((5-methoxypyridin-2-yl)methoxy)-2-(pyrazin-2-yl)benzo[d]oxazole. Samples were transferred onto GF/B filter plates and washed 2× with 200 μL PBS using a Filtermate Harvester. After drying filter plates for 1 hour at 55° C., the back of the plates were sealed with foil and 30 μL/well scintillation fluid (Packard MicroScint 40) added, incubated for 15 minutes in the dark and counted in a MicroBeta reader. For analysis, replicate data from independent assay plates were normalized towards 0% and 100% inhibition using control wells of vehicle (0% inhibition) and 1 μM unlabelled [^3H3-methyl]-5-((5-methoxypyridin-2-yl)methoxy)-2-(pyrazin-2-yl)benzo[d]oxazole (100% inhibition). IC50 values were determined with a sigmoidal inhibition model with four variables (top, bottom, slope, IC50) in a global fit using the normalized replicate data.

Where [1] appears, read: displacement of 0.3 nM [3H3-methyl]-5-((5-methoxypyridin-2-yl)methoxy)-2-(pyrazin-2-yl)benzo[d]oxazole from 1 μM Exonl-Q46 aggregates, method calls the values IC50.
The mark [2] stands for this setting: same radioligand displacement on Exonl-Q46 aggregates.

Where two headings read alike, the source gives them in different places.

aggregated MBP-HTT(1-89)Q46-His(6×) (Exonl-Q46) protein (Q46 protein aggregates), sequence (P42858 other isoform, or with tags, fused parts or gaps, stated change not applied): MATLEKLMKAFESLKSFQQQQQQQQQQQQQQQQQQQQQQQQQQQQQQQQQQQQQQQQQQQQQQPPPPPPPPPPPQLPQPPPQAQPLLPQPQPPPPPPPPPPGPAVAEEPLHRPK

The term EC50 denotes the concentration that produces a half-maximal response. With `COc1ccc(C(=O)N2CCc3ccc(OCc4ccc(OCF)cn4)cc3C2)cn1` [Example 37, (7-((5-(Fluoromethoxy)pyridin-2-yl)methoxy)-3,4-dihydroisoquino-lin-2(1H)-yl)(6-methoxypyridin-3-yl)methanone], the EC50 by setting is: under setting [1], 2.6 nM; under setting [2], less than 100 nM.
Take `COc1ccc(COc2cnc3c(c2)CN(c2cncc(OC)c2)CC3)nc1` [Example 6.3]: the EC50 under setting [1] amounted to 7.86 nM and the concentration giving a half-maximal response (EC50) under setting [2] was less than 100 nM.
In the case of `C=CCOc1ccc(COc2ccc3c(c2)CN(C(=O)c2ccc(OC)nc2)CC3)nc1` [Example 35, (7-((5-(Allyloxy)pyridin-2-yl)methoxy)-3,4-dihydroisoquinolin-2(1H)-yl)(6-methoxypyridin-3-yl)methanone], the EC50 under setting [1] was 1.05 nM and the half-maximal effective concentration (EC50) under setting [2] is less than 100 nM.
As to `COc1ccc(C(=O)N2CCc3ccc(OCc4ccc(OCCF)cn4)cc3C2)cn1` [Example 38, (7-((5-(2-Fluoroethoxy)pyridin-2-yl)methoxy)-3,4-dihydroisoquino-lin-2(1H)-yl)(6-methoxypyridin-3-yl)methanone], the EC50 under setting [1] was 1.25 nM and the EC50 under setting [2] was less than 100 nM.
Take `COc1ccc(COc2ccc3c(c2)CN(C(=O)c2cnn(C)c2)CC3)nc1` [Example 1.24]: the half-maximal effective concentration (EC50) under setting [1] worked out at 7.87 nM and the EC50 under setting [2] is less than 100 nM.
For `COc1ccc(COc2ccc3c(c2)CN(C(C)=O)CC3)nc1` [Example 1.7], the concentration for a half-maximal effect (EC50) under setting [1] came to 96.5 nM and the EC50 under setting [2] was less than 100 nM.
On to `COc1ccc(COc2ccc3c(c2)CN(C(=O)N2CC4(COC4)C2)CC3)nc1` [Example 4.4], for which the concentration giving a half-maximal response (EC50) runs as follows: under setting [1], 1000 nM; under setting [2], more than 500 nM.
As for `COc1ccc(OCCn2cnc3c2CN(C(=O)c2ccc(OC)nc2)CC3)nc1` [Example 30, 2-Methoxy-5-(3-{2-[(5-methoxypyridin-2-yl)oxy]ethyl}-3H,4H,5H,6H,7H-imidazo[4,5-c]pyridine-5-carbonyl)pyridine], the EC50 under setting [1] was 704 nM and the EC50 under setting [2] was more than 500 nM.
As for `COc1ccc(COc2ccc3c(c2)CN(S(=O)(=O)c2ccc(OC)nc2)CC3)nc1` [Example 18, 7-[(5-Methoxypyridin-2-yl)methoxy]-2-[(6-methoxypyridin-3-yl)sulfonyl]-1,2,3,4-tetrahydroisoquinoline], the concentration for a half-maximal effect (EC50) is 390 nM under setting [1] and 100 to 500 nM under setting [2].
As for `COc1ccc(COc2cnc3c(c2)CN(C(=O)c2ccn(CCF)c(=O)c2)CC3)nc1` [Example 1.29], the concentration for a half-maximal effect (EC50) under setting [1] worked out at 271 nM and the 50% effective concentration (EC50) under setting [2] was in the range of 100 to 500 nM.
In the case of `COc1ccc(COc2ccc3c(c2)CN(c2ccc(=O)n(C)n2)CC3)nc1` [Example 27.1], the EC50 is 13.4 nM under setting [1] and less than 100 nM under setting [2].
For `COc1ccc(COc2cnc3c(c2)CN(C(=O)c2ccc(-n4ccnc4)nc2)CC3)nc1` [Example 24, 6-[6-(1H-Imidazol-1-yl)pyridine-3-carbonyl]-3-[(5-methoxypyridin-2-yl)methoxy]-5,6,7,8-tetrahydro-1,6-naphthyridine], the 50% effective concentration (EC50) was 2.06 nM under setting [1] and less than 100 nM under setting [2].
Turning to `COc1ccc(COc2ccc3c(c2)CN(c2cnn(C)c2)CC3)nc1` [Example 29, 7-[(5-Methoxypyridin-2-yl)methoxy]-2-(1-methyl-1H-pyrazol-4-yl)-1,2,3,4-tetrahydroisoquinoline], the half-maximal effective concentration (EC50) is, setting by setting: under setting [1], 161 nM; under setting [2], 100 to 500 nM.
As for `COc1ccc(COc2ccc3c(c2)CN(C(=O)c2ccc(C(F)(F)F)nc2)CC3)nc1` [Example 1.17], the EC50 was 2.54 nM under setting [1] and less than 100 nM under setting [2].
Consider `COc1ccc(COc2ccc3c(c2)CN(C(=O)c2ccc(N(C)C)nc2)CC3)nc1` [Example 1.14], for which the half-maximal effective concentration (EC50) is, setting by setting: under setting [1], 1.8 nM; under setting [2], less than 100 nM.
On to `COc1ccc(COc2ccc3c(c2)CN(C(=O)c2ccc(OC)nn2)CC3)nc1` [Example 1.11], for which the EC50 under setting [1] is 5.2 nM and the EC50 under setting [2] was less than 100 nM.
`COc1ccc(C(=O)Nc2ccc3c(c2)CN(c2ccc(OC)nc2)CC3)nc1` [Example 11, 5-Methoxy-N-[2-(6-methoxypyridin-3-yl)-1,2,3,4-tetrahydroisoquinolin-7-yl]pyridine-2-carboxamide]: the half-maximal effective concentration (EC50) by setting is: under setting [1], 1.3 nM; under setting [2], less than 100 nM.
On to `COc1ccc(COc2cnc3c(c2)CN(C(=O)c2cncc(OC)c2)CC3)nc1` [Example 1.28], for which the EC50 by setting is: under setting [1], 29.4 nM; under setting [2], less than 100 nM.
As to `COc1ccc(COc2ccc3c(c2)CN(c2cccc(OC)n2)CC3)nc1` [Example 8.2], the EC50 by setting is: under setting [1], 2.02 nM; under setting [2], less than 100 nM.
Consider `COc1ccc2c(c1)CN(C(=O)c1ccc(OC)nc1)CC2` [Example 1.6], for which the EC50 runs as follows: under setting [1], 333 nM; under setting [2], 100 to 500 nM.
As to `COc1ccc(COc2cccc3c2CN(C(=O)c2ccc(OC)nc2)CC3)nc1` [Example 1.13], the EC50 reads like this: under setting [1], 87.5 nM; under setting [2], less than 100 nM.
`COc1ccc(COc2ccc3c(c2)CN(C(=O)N2CCc4cc(OC)ncc4C2)CC3)nc1` [Example 4.3]: the 50% effective concentration (EC50) by setting is: under setting [1], 3.67 nM; under setting [2], less than 100 nM.
Consider `COc1ccc(COc2ccc3c(c2)CN(C(=O)c2ccc(C)nc2)CC3)nc1` [Example 1.25], for which the EC50 is 2.91 nM under setting [1] and less than 100 nM under setting [2].
In the case of `COc1ccc(COc2ccc3c(c2)CN(C(=O)c2ccc(=O)n(C)n2)CC3)nc1` [Example 1.1], the EC50 under setting [1] is 7.75 nM and the concentration for a half-maximal effect (EC50) under setting [2] was less than 100 nM.
The like results for `COc1ccc(OCc2cn3c(n2)CN(C(=O)c2ccc(OC)nc2)CC3)nc1` [Example 20, 5-Methoxy-2-{[7-(6-methoxypyridine-3-carbonyl)-5H,6H,7H,8H-imidazo[1,2-a]pyrazin-2-yl]methoxy}pyridine] were, in that order, 1000 nM and more than 500 nM.
Regarding `COc1ccc(COc2ccc3c(c2)C(=O)N(Cc2ccc(OC)nc2)CC3)nc1` [Example 2, 7-[(5-Methoxypyridin-2-yl)methoxy]-2-[(6-methoxypyridin-3-yl)methyl]-1,2,3,4-tetrahydroisoquinolin-1-one], the EC50 was 98.5 nM under setting [1] and less than 100 nM under setting [2].
On to `COc1ccc(C(=O)N(C)c2ccc3c(c2)CN(C(=O)c2ccc(OC)nc2)CC3)nc1` [Example 13], for which the EC50 is, setting by setting: under setting [1], 1000 nM; under setting [2], more than 500 nM.
As to `COc1ccc(COc2ccc3c(c2)CN(C(=O)c2ccc(OC)nc2)CC3C)nc1` (centres unmarked) [Example 28], the 50% effective concentration (EC50) under setting [2] was less than 100 nM.
In the case of `COc1ccc(COc2ccc3c(c2)CCN(C(=O)c2ccc(OC)nc2)C3)nc1` [Example 1.4], the EC50 was 8.48 nM under setting [1] and less than 100 nM under setting [2].
Consider `COc1ccc(COc2ccc3c(c2)CN(Cc2ccc(OC)nc2)CC3)nc1` [Example 7], for which the EC50 under setting [1] worked out at 137 nM and the EC50 under setting [2] is 100 to 500 nM.
For `COc1ccc(COc2ccc3c(c2)CN(c2cc(OC)ccn2)CC3)nc1` [Example 8.1], the EC50 reads like this: under setting [1], 1.7 nM; under setting [2], less than 100 nM.
`Cn1cc(C(=O)N2CCc3ccc(OCc4ccc(O)cn4)cc3C2)ccc1=O` [Example 40, 5-(7-((5-Hydroxypyridin-2-yl)methoxy)-1,2,3,4-tetrahydroisoquinoline-2-carbonyl)-1-methylpyridin-2(1H)-one]: the EC50 under setting [1] was 333 nM and the EC50 under setting [2] lay in the range of 100 to 500 nM.
`COc1ccc(COc2ccc3c(c2)CN(C(=O)c2ccc(OCCF)nc2)CC3)nc1` [Example 34, (6-(2-Fluoroethoxy)pyridin-3-yl)(7-((5-methoxypyridin-2-yl)methoxy)-3,4-dihydroisoquinolin-2(1H)-yl)methanone]: the concentration giving a half-maximal response (EC50) runs as follows: under setting [1], 2.48 nM; under setting [2], less than 100 nM.
On to `COc1ccc(COc2ccc3c(c2)CN(c2ccc(OC)cn2)CC3)nc1` [Example 8, 2-(5-Methoxypyridin-2-yl)-7-[(5-methoxypyridin-2-yl)methoxy]-1,2,3,4-tetrahydroisoquinoline], for which the EC50 is 1.79 nM under setting [1] and less than 100 nM under setting [2].
On to `COc1ccc(COc2ccc3c(c2)CN(C(=O)OCC(C)C)CC3)nc1` [Example 33, 2-Methylpropyl 7-[(5-methoxypyridin-2-yl)methoxy]-1,2,3,4-tetrahydroisoquinoline-2-carboxylate], for which the EC50 under setting [1] turned out to be 36.5 nM and the EC50 under setting [2] was less than 100 nM.
`COc1ccc(COC(=O)N2CCc3ccccc3C2)cn1` [Example 5, (6-Methoxypyridin-3-yl)methyl 1,2,3,4-tetrahydroisoquinoline-2-carboxylate]: the EC50 is 1000 nM under setting [1] and more than 500 nM under setting [2].
